Results reported in patent US9107415B2, “2-(substituted-phenyl)-cyclopentane-1,3-dione compounds, and derivatives thereof” (Syngenta Limited, priority 2011, dated 2015).

Experiments:
Type in all cases: in vivo
[1] = test system: Avena fatua (AVEFA); assay: Biological Example 1 glasshouse screen, post-emergence herbicidal activity; conditions: 312 h, application rate 250 g/ha, evaluated after 13 days, read-out: AVEFA percentage phytotoxicity
Description: (§1) Seeds of a variety of test species were sown in standard soil in pots. After cultivation for one day (pre-emergence) or after 8 days cultivation (post-emergence) under controlled conditions in a glasshouse (at 24/16°C., day/night; 14 hours light; 65% humidity), the plants were sprayed with an aqueous spray solution derived from the formulation of the “technical”(i.e. unformulated) active ingredient in acetone/water (50:50) solution containing 0.5% Tween 20 (polyoxyethylene sorbitan monolaurate, CAS Registry Number 9005-64-5). The test plants were then grown in a glasshouse under controlled conditions in a glasshouse (at 24/16°C., day/night; 14 hours light; 65% humidity) and watered twice daily. After 13 days for pre- or post-emergence, the test was evaluated visually, and an assessed percentage phytotoxicity score given for each herbicidal application on each plant/weed species (with 100%=total damage to plant; 0%=no damage to plant).
(§2) Test plants: Lolium perenne (LOLPE), Alopecurus myosuroides (ALOMY), Echinochloa crus-galli (ECHCG), and Avena fatua (AVEFA). All four of these are grassy monocotyledonous weeds.

[2] = test system: Lolium perenne (LOLPE); assay: as above; conditions: 312 h, application rate 250 g/ha, evaluated after 13 days, read-out: LOLPE percentage phytotoxicity
Description: as §1, §2

[3] = test system: Echinochloa crus galli, barnyardgrass (ECHCG); assay: Biological Example 3 glasshouse screen, post-emergence herbicidal activity; conditions: 360 h, 15 DAA, no safener, read-out: ECHCG percentage phytotoxicity; for pest or weed control at 30 g/ha: application rate 30 g/ha
Description: (§3) Test Method: Seeds of a variety of test species are sown in standard soil in pots. After cultivation for one day (pre-emergence) or after 12 days cultivation (post-emergence) under controlled conditions in a glasshouse (warm climate species at 24/18°C., cool climate species at 20/16°C., both at day/night; 16 hours light; 65% humidity), the plants are sprayed with an aqueous spray solution derived from the formulation of the “technical”(i.e. unformulated) active ingredient dissolved in acetone plus IF50, at a 1:20 ratio of “technical”active ingredient to IF50. The IF50 contains about 10.56 weight % Emulsogen EL™(castor oil ethoxylate, CAS Registry number 61791-12-6), about 42.22 weight % N-methylpyrrolidone, and about 42.22 weight % DPG-Monoethyl ether (dipropylene glycol mono-ethyl ether). The adjuvant X-77 (a mixture of alkyl aryl polyoxyethylene glycols and free fatty acids in isopropanol, CAS Registry number 11097-66-8) is added to the aqueous spray solution to form a 0.2% v/v solution, before spraying onto the plants.
(§4) The test plants are then grown in a glasshouse under controlled conditions in a glasshouse (at 24/18°C. or 20/16°C., day/night; 16 hours light; 65% humidity) and watered twice daily. After 15 days after application of the herbicide (15 DAA) (for post-emergence), and after 20 DAA (for pre-emergence), the test is evaluated visually, and an assessed percentage phytotoxicity score is given for each herbicidal application on each plant/weed species (with 100%=total damage to plant; 0%=no damage to plant). […]

[4] = test system: Lolium perenne, perennial ryegrass (LOLPE); assay: as above; conditions: 360 h, 15 DAA, no safener, read-out: LOLPE percentage phytotoxicity; for pest or weed control at 30 g/ha: application rate 30 g/ha
Description: as §3, §4

[5] = test system: Alopecurus myosuroides, blackgrass (ALOMY); assay: as above; conditions: 360 h, 15 DAA, no safener, read-out: ALOMY percentage phytotoxicity; for pest or weed control at 30 g/ha: application rate 30 g/ha
Description: as §3, §4

[6] = test system: Avena fatua, wild oats (AVEFA); assay: as above; conditions: 360 h, 15 DAA, no safener, read-out: AVEFA percentage phytotoxicity; for pest or weed control at 30 g/ha: application rate 30 g/ha
Description: as §3, §4

[7] = test system: Triticum aestivum, wheat (TRZAW); assay: Biological Example 3 glasshouse screen, post-emergence, phytotoxicity on wheat; conditions: 360 h, 15 DAA, no safener, read-out: TRZAW percentage phytotoxicity; for pest or weed control at 30 g/ha: application rate 30 g/ha
Description: as §3
The test plants are then grown in a glasshouse under controlled conditions in a glasshouse (at 24/18°C. or 20/16°C., day/night; 16 hours light; 65% humidity) and watered twice daily. After 15 days after application of the herbicide (15 DAA) (for post-emergence), and after 20 DAA (for pre-emergence), the test is evaluated visually, and an assessed percentage phytotoxicity score is given for each herbicidal application on each plant/weed species (with 100%=total damage to plant; 0%=no damage to plant).
These give an approximate indication of the level of selectivity on wheat for these tested compounds, when a herbicide safener such as cloquintocet-mexyl is not used: […]

[8] = test system: Alopecurus myosuroides (ALOMY); assay: Biological Example 1 glasshouse screen, post-emergence herbicidal activity; conditions: 312 h, application rate 250 g/ha, evaluated after 13 days, read-out: ALOMY percentage phytotoxicity
Description: as §1
(§5) Test plants: Alopecurus myosuroides (ALOMY), Setaria faberi (SETFA), Echinochloa crus-galli (ECHCG), Solanum nigrum (SOLNI), Amaranthus retroflexus (AMARE) and Ipomoea hederacea (IPOHE). ALOMY, SETFA and ECHCG are grassy monocotyledonous weeds. SOLNI, AMARE and IPOHE are dicotyledonous (broadleaved) weeds.
as §2

[9] = test system: Echinochloa crus-galli (ECHCG); assay: as above; conditions: 312 h, application rate 250 g/ha, evaluated after 13 days, read-out: ECHCG percentage phytotoxicity
Description: as §1, §5, §2

[10] = test system: Alopecurus myosuroides (ALOMY); assay: Biological Example 1 glasshouse screen, pre-emergence herbicidal activity; conditions: 312 h, application rate 250 g/ha, evaluated after 13 days, read-out: ALOMY percentage phytotoxicity
Description: as §1, §5, §2

[11] = test system: Echinochloa crus-galli (ECHCG); assay: as above; conditions: 312 h, application rate 250 g/ha, evaluated after 13 days, read-out: ECHCG percentage phytotoxicity
Description: as §1, §5, §2

[12] = test system: Avena fatua (AVEFA); assay: as above; conditions: 312 h, application rate 250 g/ha, evaluated after 13 days, read-out: AVEFA percentage phytotoxicity
Description: as §1, §2

[13] = test system: Lolium perenne (LOLPE); assay: as above; conditions: 312 h, application rate 250 g/ha, evaluated after 13 days, read-out: LOLPE percentage phytotoxicity
Description: as §1, §2

SMILES	pest or weed control at 250 g/ha [1] [%]	pest or weed control at 250 g/ha [2] [%]	pest or weed control at 30 g/ha [3] [%]	pest or weed control at 60 g/ha ([3]; application rate 60 g/ha) [%]	pest or weed control at 30 g/ha [4] [%]	pest or weed control at 60 g/ha ([4]; application rate 60 g/ha) [%]	pest or weed control at 30 g/ha [5] [%]	pest or weed control at 60 g/ha ([5]; application rate 60 g/ha) [%]	pest or weed control at 30 g/ha [6] [%]	pest or weed control at 60 g/ha ([6]; application rate 60 g/ha) [%]	pest or weed control at 30 g/ha [7] [%]	pest or weed control at 60 g/ha ([7]; application rate 60 g/ha) [%]	pest or weed control at 250 g/ha [8] [%]	pest or weed control at 250 g/ha [9] [%]	pest or weed control at 250 g/ha [10] [%]	pest or weed control at 250 g/ha [11] [%]	pest or weed control at 250 g/ha [12] [%]	pest or weed control at 250 g/ha [13] [%]
CC#Cc1cc(C)c(C2=C(O)CC(Cc3cccc(F)n3)C2=O)c(C)c1 (stereo not drawn) [Compound A-7]	90	100	80	100	80	90	70	80	40	50	40	50	100	100				
CC#Cc1cc(C)c(C2=C(O)CC(Cc3cccc(C#N)n3)C2=O)c(C)c1 (stereo not drawn) [Compound A-12]	100	90											90	100	90	100	80	90
CC#Cc1cc(C)c(C2=C(O)CC(Cc3ccc(C(C)=O)cn3)C2=O)c(C)c1 (stereo not drawn) [Compound A-13]	80	80											70	100	80	100	80	80
C#CCC1CC(=O)C(c2c(C)cc(C#CC)cc2C)C1=O (stereo not drawn) [Compound A-20]	90	100											100	100	100	100	90	100
CC#CCC1CC(=O)C(c2c(C)cc(C#CC)cc2C)C1=O (stereo not drawn) [Compound A-21]	80	100											100	100	100	100	60	100
CC#Cc1cc(C)c(C2C(=O)CC(CC#CCl)C2=O)c(C)c1 (stereo not drawn) [Compound A-22]	0	80											60	100	90	100	80	90
CC#Cc1cc(C)c(C2C(=O)CC(Cc3ccc(C#N)c(NC)n3)C2=O)c(C)c1 (stereo not drawn) [Compound A-23, 6-[[3-(2,6-dimethyl-4-prop-1-ynyl-phenyl)-2,4-dioxo-cyclopentyl]methyl]-2-(methylamino)pyridine-3-carbonitrile]	90	90											100	100	80	100	80	80
CC#Cc1cc(C)c(C2C(=O)CC(Cc3ccn[nH]3)C2=O)c(C)c1 (stereo not drawn) [Compound A-24]	100	100											100	100	100	100	80	100
C#CCC1CC(=O)C(c2c(C)cc(C#CCl)cc2C)C1=O (stereo not drawn) [Compound A-25]	100	100											90	100	90	100	70	100
CC#Cc1cc(C)c(C2C(=O)CC(Cc3ccc(C#N)cn3)C2=O)c(CC)c1 (stereo not drawn) [Compound A-27]	100	90											70	100	90	100	90	100
CC#Cc1cc(C)c(C2C(=O)CC(Cc3ccc(C#N)cc3)C2=O)c(C)c1 (stereo not drawn) [Compound A-28]	80	90											90	100	70	100	70	90
CC#Cc1cc(C)c(C2C(=O)CC(Cc3ccccc3C#N)C2=O)c(C)c1 (stereo not drawn) [Compound A-29]	80	100											100	100	50	80	100	50
Cc1cc(-c2ccc(F)cc2)cc(C)c1C1C(=O)CC(Cc2ccccn2)C1=O (stereo not drawn) [Compound T71, from WO 2010/069834, reference compound]			100		90		100		100		80							
Cc1cc(-c2ccc(F)c(Cl)c2)cc(C)c1C1C(=O)CC(Cc2ccccn2)C1=O (stereo not drawn) [reference compound]			90		70		100		90		70							
Cc1cc(-c2ccc(F)cc2)cc(C)c1C1C(=O)CC(Cc2ccc(C#N)cn2)C1=O (stereo not drawn) [reference compound]			100		10		70		30		50							
